The nature of data set [1]: Anticancer activity against human DLD-1 cells xenografted rat model assessed as tumor growth inhibition at 50 mg/kg measured. Type of data set: functional. Particulars: read-out: TGI. On the technique in general: In xenograft studies the graft and the host belong to different species.
The subject of data set [2] is DLD-1. Kind of data set: Induction of apoptosis in human DLD-1 cells harboring KRAS G13D mutant assessed as cleaved-PRAP at 100 nM measured after 24 to 48 hrs. Type of data set: functional, cell-based. To be noted: time 24-48 hrs.
A short description of data set [3]: Efflux ratio of apparent permeability from basolateral to apical side over apical to basolateral side in human Caco-2 cells at 10 uM. For orientation: Passage across Caco-2 layers is used to estimate intestinal permeability.
Data set [4] concerns the target T1, Son of sevenless homolog 1 (Homo sapiens, UniProt Q07889).
T1 sequence (Q07889 whole entry): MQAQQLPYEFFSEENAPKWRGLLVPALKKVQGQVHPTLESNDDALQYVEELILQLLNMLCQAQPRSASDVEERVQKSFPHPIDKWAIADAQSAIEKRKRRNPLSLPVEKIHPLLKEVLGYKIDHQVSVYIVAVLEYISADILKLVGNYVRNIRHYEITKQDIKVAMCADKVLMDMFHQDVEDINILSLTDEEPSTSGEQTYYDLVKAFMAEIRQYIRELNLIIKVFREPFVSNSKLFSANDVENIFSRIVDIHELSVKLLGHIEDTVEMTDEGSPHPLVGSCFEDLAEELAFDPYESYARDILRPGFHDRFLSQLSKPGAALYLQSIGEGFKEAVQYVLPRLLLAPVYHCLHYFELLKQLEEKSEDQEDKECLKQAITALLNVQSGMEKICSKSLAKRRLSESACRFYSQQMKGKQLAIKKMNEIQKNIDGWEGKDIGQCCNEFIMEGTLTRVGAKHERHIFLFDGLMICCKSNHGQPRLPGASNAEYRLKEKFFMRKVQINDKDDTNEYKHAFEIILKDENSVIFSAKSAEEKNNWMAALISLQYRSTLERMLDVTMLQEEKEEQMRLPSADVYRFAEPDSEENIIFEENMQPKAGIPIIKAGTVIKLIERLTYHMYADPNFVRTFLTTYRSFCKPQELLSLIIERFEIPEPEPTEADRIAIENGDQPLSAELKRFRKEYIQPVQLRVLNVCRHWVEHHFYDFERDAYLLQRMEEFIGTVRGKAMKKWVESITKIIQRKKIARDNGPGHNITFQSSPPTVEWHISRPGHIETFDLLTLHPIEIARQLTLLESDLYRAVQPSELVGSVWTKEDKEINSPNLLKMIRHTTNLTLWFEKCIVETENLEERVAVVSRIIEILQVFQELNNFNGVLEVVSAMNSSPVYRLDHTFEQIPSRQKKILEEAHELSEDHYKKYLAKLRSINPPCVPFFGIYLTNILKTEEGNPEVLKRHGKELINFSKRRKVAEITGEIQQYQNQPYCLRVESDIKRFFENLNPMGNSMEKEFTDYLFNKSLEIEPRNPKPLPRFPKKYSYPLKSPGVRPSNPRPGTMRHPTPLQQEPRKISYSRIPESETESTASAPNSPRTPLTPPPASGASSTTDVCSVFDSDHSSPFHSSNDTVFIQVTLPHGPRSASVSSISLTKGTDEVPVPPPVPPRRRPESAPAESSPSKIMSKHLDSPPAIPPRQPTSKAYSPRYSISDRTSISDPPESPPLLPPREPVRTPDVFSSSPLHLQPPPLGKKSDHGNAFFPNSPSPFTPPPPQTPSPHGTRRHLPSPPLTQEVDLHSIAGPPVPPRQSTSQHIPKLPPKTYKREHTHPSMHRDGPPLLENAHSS
Kind of data set: Binding affinity to SOS1 (unknown origin) assessed as dissociation constant by SPR analysis.

The target of data set [5] is T2, SOS1-KRAS (Homo sapiens, UniProt Q07889). The experiment in a line: Inhibition of SOS1/KRAS G12D mutant (unknown origin) protein-protein interaction using GDP nucleotide as substrate measured after 30 mins by Alphascreen assay. For orientation: In Alpha technology, singlet oxygen from a donor bead excites a nearby acceptor bead.
The subject of data set [6] is DLD-1. The experiment in a line: Induction of apoptosis in human DLD-1 cells harboring KRAS G13D mutant assessed as cleaved-PRAP measured after 24 to 48 hrs. The format is functional, cell-based. To be noted: time 24-48 hrs.
Data set [7] can be described thus: Metabolic stability in mouse hepatocytes in presence of 50% serum. Type of data set: ADME, cell-based, Hepatocyte.
Data set [8] is described as follows: Metabolic stability in human hepatocytes in presence of 50% serum. Type of data set: ADME, cell-based, Hepatocyte.
Data set [9] is described as follows: Oral bioavailability in mouse. Type of data set: ADME, organism-based. Particulars: in vivo.
The nature of data set [10]: Oral bioavailability in rat. Type of data set: ADME, organism-based. Particulars: in vivo.
Data set [11] in a line: Metabolic stability in rat hepatocytes in presence of 50% serum. Type of data set: ADME, cell-based, Hepatocyte.
In data set [12] the target is T2, SOS1-KRAS. Kind of data set: Activation of SOS1/KRAS G12D mutant (unknown origin) protein-protein interaction using GDP nucleotide as substrate measured after 30 mins by Alphascreen assay.
Data set [13] deals with Epidermal growth factor receptor (Homo sapiens, UniProt P00533). Kind of data set: Inhibition of EGFR (unknown origin).
Sequence of Epidermal growth factor receptor (P00533 whole entry): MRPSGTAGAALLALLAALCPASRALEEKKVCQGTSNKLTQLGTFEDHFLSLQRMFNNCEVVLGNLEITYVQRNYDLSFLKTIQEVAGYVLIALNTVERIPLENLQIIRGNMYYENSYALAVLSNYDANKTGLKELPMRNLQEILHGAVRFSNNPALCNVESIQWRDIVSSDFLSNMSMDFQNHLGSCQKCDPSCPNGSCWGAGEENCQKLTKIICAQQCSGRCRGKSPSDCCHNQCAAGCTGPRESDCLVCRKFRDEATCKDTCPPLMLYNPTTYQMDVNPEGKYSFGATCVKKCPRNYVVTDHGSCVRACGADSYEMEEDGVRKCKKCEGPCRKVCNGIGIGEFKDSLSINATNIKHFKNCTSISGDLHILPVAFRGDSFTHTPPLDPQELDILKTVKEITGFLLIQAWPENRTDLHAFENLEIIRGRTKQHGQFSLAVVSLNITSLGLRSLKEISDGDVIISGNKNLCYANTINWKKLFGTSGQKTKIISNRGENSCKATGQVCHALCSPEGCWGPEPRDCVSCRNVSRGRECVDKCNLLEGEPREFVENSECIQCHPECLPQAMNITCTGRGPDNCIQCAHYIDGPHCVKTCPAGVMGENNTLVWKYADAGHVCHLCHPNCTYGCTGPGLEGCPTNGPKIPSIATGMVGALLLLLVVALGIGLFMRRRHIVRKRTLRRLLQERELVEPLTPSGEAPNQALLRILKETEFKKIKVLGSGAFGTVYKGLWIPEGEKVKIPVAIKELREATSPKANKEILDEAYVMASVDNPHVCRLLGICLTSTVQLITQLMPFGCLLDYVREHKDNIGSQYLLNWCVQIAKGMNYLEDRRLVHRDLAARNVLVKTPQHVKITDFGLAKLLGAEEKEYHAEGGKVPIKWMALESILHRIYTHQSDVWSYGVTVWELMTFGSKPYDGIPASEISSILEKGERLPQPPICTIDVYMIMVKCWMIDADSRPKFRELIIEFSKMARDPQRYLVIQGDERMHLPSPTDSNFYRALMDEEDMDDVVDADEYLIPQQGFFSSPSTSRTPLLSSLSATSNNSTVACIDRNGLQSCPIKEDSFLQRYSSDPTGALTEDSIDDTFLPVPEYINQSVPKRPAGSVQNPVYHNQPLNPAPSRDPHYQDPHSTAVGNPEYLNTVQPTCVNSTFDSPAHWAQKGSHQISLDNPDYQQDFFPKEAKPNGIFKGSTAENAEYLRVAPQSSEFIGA
The test system of data set [14] is DLD-1. Kind of data set: Induction of apoptosis in human DLD-1 cells harboring KRAS G13D mutant assessed as cleaved-PRAP at 0.1 nM measured after 24 to 48 hrs. The format is functional, cell-based. Particulars: time 24-48 hrs.

Calls of active or inactive are those of the source. The calls are words filed in the database; no cut-off is given here. Bounds are passed on as bounds.

Turning to `CN(C)C/C=C/C(=O)Nc1cc2c(Nc3ccc(F)c(Cl)c3)ncnc2cc1O[C@H]1CCOC1` [AFATINIB], the inhibition in vivo at 50 mg/kg in data set [1] is 7%. Also, the result in data set [2] was Active.
Turning to `COc1cc2nc(C)nc(N[C@H](C)c3cc(N)cc(C(F)(F)F)c3)c2cc1OC`, in data set [3], the efflux ratio (usually the permeability from basolateral to apical divided by that in the opposite direction, in the common usage) at 10 µM came out at 0.7. The Kd (in general, the concentration at which binding is half-saturated) in data set [4] was 16 nM. For the same compound, the IC50 (commonly the concentration that inhibits the measured activity by half) in [5] is 15 nM.
For `COc1cc2nc(C)nc(N[C@H](C)c3cccc(N)c3)c2cc1OC`, in that order: 1.3, 123 nM and 355 nM.
Turning to `Cc1nc(N[C@H](C)c2cc(N)cc(C(F)(F)F)c2)c2cc(Cl)ccc2n1`, in data set [4], the Kd was determined as 1490 nM. In data set [5], this compound displayed an IC50 of 3830 nM.
On to `CC(C)c1noc2ncc(C(=O)NC(C)c3cccc(S(N)(=O)=O)c3)cc12` (stereo unspecified), for which, in [4], the Kd turned out to be 937 nM. This compound also registered an IC50 in data set [5] of 1190 nM.
`COc1cc2nc(C)nc(N[C@H](C)c3cc(N)cc(C(F)(F)F)c3)c2cc1O[C@H]1CCOC1`: in [6], the outcome was Active. Also, the Stability in [7] is recorded as 45%; in [8], 14%; in data set [11] it was 28%. The bioavailability in data set [9] and in [10] was 100% throughout. Further, in data set [1], the inhibition in vivo at 50 mg/kg was 37%.
Consider `Cc1nc(N[C@H](C)c2cc(N)cc(C(F)(F)F)c2)c2cc(F)ccc2n1`, for which, in data set [4], the equilibrium dissociation constant (Kd) was 751 nM. In addition, a half-maximal response in data set [12] (EC50) required 0.939 µM.
With `COc1ccc2nc(C)nc(N[C@H](C)c3cc(N)cc(C(F)(F)F)c3)c2c1`, in data set [4], the Kd amounted to 24 nM. The compound further returned an IC50 in data set [5] of 33 nM.
For `COc1cc2nc(C)nc(N[C@H](C)c3cccc(C(F)(F)F)c3)c2cc1OC`, the efflux ratio at 10 µM in [3] is 0.3. The Kd in [4] was 104 nM. The results for the IC50 in data set [13] and in [5] were more than 20000 nM and 106 nM, respectively.
In the case of `N[C@@H](Cc1c[nH]c2ccccc12)C(=O)NC1CCN(Cc2c[nH]c3ccccc23)CC1`, in [4], the Kd was 19300 nM. The EC50 (in general, the concentration needed to bring the measured effect to its halfway point) in data set [12] was 11.1 µM.
`COc1cc2nc(C)nc(N[C@H](C)c3cccc(S(N)(=O)=O)c3)c2cc1OC`: the efflux ratio at 10 µM in data set [3] was found to be 50. For the same compound, the Kd in [4] was 16 nM. Further, the results for the IC50 in data set [13] and in data set [5] were more than 20000 nM and 56 nM, respectively.
As for `COc1cc2ncnc(N[C@H](C)c3ccccc3)c2cc1OC`, the Kd in [4] was 301 nM. Also, the IC50 in data set [13] is 1 nM; in data set [5], 1050 nM.
Turning to `COc1cc2nc(C)nc(N[C@H](C)c3ccccc3)c2cc1OC`, in [3], the efflux ratio at 10 µM stood at 0.6. Moreover, in data set [4], the Kd was determined as 469 nM. Further, the IC50 in [13] is 2800 nM; in [5] it was 453 nM.
In the case of `CC(=O)Nc1cccc(-n2c(=O)n(C3CC3)c(=O)c3c(Nc4ccc(I)cc4F)n(C)c(=O)c(C)c32)c1`, the result in data set [14] was Active.

(Values after ChEMBL document CHEMBL5036304, “One Atom Makes All the Difference: Getting a Foot in the Door between SOS1 and KRAS” (J Med Chem, 2021).)
